Consider 6 compounds from patent publication US8747809B2, “Single diastereomers of 4-fluoroglutamine and methods of their preparation and use” (The Trustees Of The University Of Pennsylvania, priority 2009, dated 2014).

Entries after “also recorded” stand apart in the source; their conditions may differ.

One assay deals with 9 L tumor cell line. Put plainly: In vitro cell uptake studies of the four 4-[18F]F-glutamine isomers. Format: cell-based, rat. As to conditions: 18F-labeled isomer, 37° C., 5-120 min, compared to [3H]glutamine. The method, then:
Cell uptake of four possible isomers was evaluated using 9 L tumor cell line. The cell uptake results (% dose/100 μg protein) were compared to that of [^3H] glutamine.
(§1) Because of this observation, we decided only to further investigate the (2S,4R) isomer of [^18F]4-FGln, 1. In vitro cell uptake inhibition studies were conducted in 9 L cells in order to test the specificity of [^18F]4-FGln (2S,4R), 1. Cold L-glutamine and L-serine served as the positive control inhibitors for the glutamine transporters. L-glutamine inhibits system N transporter and L-serine inhibits the ASC transporter. Three different concentrations were tested for each inhibitor ranging from 0.5 mM to 5 mM. After 30 minutes of co-incubation of L-glutamine and [^18F] […] Cold MeAIB served as the negative control, which inhibits system A transporter.
(§2) The cellular uptake of each of the four 4-[^18F]F-glutamine isomers (2S,4R), (2S,4S), (2R,4S) and (2R,4R) were studied in (9 L) rat brain gliosarcoma cells. L-[3,4-^3H(N)]-glutamine, >97%, 250 μCi (9.25 MBq), was purchased from Perkin Elmer and was used as a control for all of the cellular uptake experiments conducted. […] All four of the 4-[^18F]F-glutamine isomers and the L-[3,4-^3H(N)]-glutamine was dissolved in PBS solution and was added to each well (500,000 cpm/mL/well) and incubated at 37° C. for 5, 30, 60, 120 min. At the end of the incubation period, the wells were aspirated and then the residual cells were washed 3 times with 1 mL ice cold PBS without Ca^2+ and Mg^2+. After washing with cold PBS, 350 μL 1M NaOH was used to lyse the cells. The lysed cells were collected onto filter paper. The filter papers were placed in scintillation vials and counting fluid was added (7 mL ecolite+) and the vials were then counted with a beta counter 18-24 h later. For dual-isotope studies using 4-[^18F]F-glutamine isomers and L-[3,4-^3H(N)]-glutamine, the vials were counted first using a gamma counter to obtain ^18F counts. The beta counts were then obtained one day later after the ^18F was fully decayed. 100 μL of the cell lysate was used for the determination of the protein concentration by Lowry method.

Another assay deals with 9 L cells. Put plainly: In vitro inhibition studies of 4-[18F]F-glutamine (2S,4R) uptake. Format: cell-based, rat. As to conditions: for effect of inhibitor on tracer uptake / transporter (in words): 0.5 mM to 5 mM; for uptake of [18F]4-FGln (2S,4R) in presence of inhibitor: 30 minutes co-incubation, 5 mM stated for MeAIB, control 3.56. The method, then:
as §1, §2
To test the specificity of the 4-[^18F]F-glutamine (2S,4R) isomer, inhibition studies were conducted using 9 L cells. The tracer was incubated at 37° C. for 30 min. The cells were processed as previously described as above. Cold L-glutamine and L-Serine served as the positive control inhibitors for the glutamine transporters. L-glutamine inhibits system N transporter and L-Serine inhibits the ASC transporter. Cold MeAIB served as the negative control, which inhibits system A transporter. Three different concentrations were tested for each inhibitor ranging from 0.5 mM to 5 mM.

In the case of `NC(=O)[C@H](F)C[C@@H](N)C(=O)O` [Compound 4, (2R,4R)-4-FGln], in the assay with 9 L tumor cell line, the “cell uptake in 9 L cells (in words)” value is given as “lower cell uptake”.
Consider `NC(=O)CC[C@H](N)C(=O)O` [L-glutamine], for which, in the assay on 9 L cells (30 min), the “effect of inhibitor on tracer uptake / transporter (in words)” value was “clearly inhibited”. Besides, the “uptake of [18F]4-FGln (2S,4R) in presence of inhibitor” value in the assay on 9 L cells turned out to be 0.49 % dose/100 ug protein. Also, the inhibition at 5000 µM with 9 L cells (Rattus norvegicus, 0.5 h, 30 min, [5 mM], read-out: inhibition of [18F]4-FGln (2S,4R) uptake) is ~90%.
Take `CNC(C)(C)C(=O)O` [MeAIB]: in the assay on 9 L cells (30 min), the “effect of inhibitor on tracer uptake / transporter (in words)” value is listed as “little to no effect”. Besides, in the assay on 9 L cells, the “uptake of [18F]4-FGln (2S,4R) in presence of inhibitor” value turned out to be 3.69 % dose/100 ug protein.
For `N[C@@H](CO)C(=O)O` [L-serine] the same measures were “considerable inhibition” and 1.41 % dose/100 ug protein.
In the case of `NC(=O)[C@@H](F)C[C@@H](N)C(=O)O` [Compound 3, (2R,4S)-4-FGln], in the assay on 9 L tumor cell line, the “cell uptake in 9 L cells (in words)” value is listed as “lower cell uptake”.
Turning to `NC(=O)[C@H](F)C[C@H](N)C(=O)O` [Compound 1, (2S,4R)-2,5-Diamino-4-fluoro-5-oxopentanoic acid], the “cell uptake in 9 L cells (in words)” value with 9 L tumor cell line (listed as 4-FGln (2S,4R)) is listed as “high uptake; also recorded: excellent uptake”.
